Laboratory results reported in ChEMBL document CHEMBL1150628, “Cytotoxic beta-carbolines and cyclic peroxides from the Palauan sponge Plakortis nigra” (J Nat Prod, 2002).
pIC50: −log10 of the molar value.

These molecules were tested on HCT-116 (assay: Cytotoxicity against human HCT116 cells).
Type: functional, cell-based
`CN(CCc1nccc2c1[nH]c1cc(Br)ccc12)CCc1nccc2c1[nH]c1cc(Br)ccc12` [PLAKORTAMINE C] showed a pIC50 of 5.67.
`CN1CCC(c2nccc3c2[nH]c2cc(Br)ccc23)O1` (stereo not given) [PLAKORTAMINE D] gave a pIC50 of 4.82.
`C[C@H]1C[C@@](C)(CCCCCCCCCCCCc2ccccc2)OC1=O` (relative stereo) was tested, and the pIC50 was 4.84.
In the case of `C=Cc1nccc2c1[nH]c1cc(Br)ccc12` [PLAKORTAMINE B], the pIC50 was 6.21.
Molecule `CN(C)CCc1nccc2c1[nH]c1cc(Br)ccc12` [PLAKORTAMINE A] has a pIC50 of 5.49.
